In patent publication US7932290B2, “Method for the treatment of metabolic disorders” (Wellstat Biologics Corporation, priority 2003, dated 2011):

Legend:
[1] = system: male ob/ob mouse model of Type II diabetes; assay: Antidiabetic effects in ob/ob mice (serum chemistry after 2 weeks daily oral dosing); type: in vivo; design: key to Glucose ± SEM: serum glucose in mg/dl; Triglycerides ± SEM / Free Fatty Acids ± SEM: unit not given here; conditions: for Glucose / Glucose (% of Control): 2 weeks; for Glucose ± SEM: Table 15
Protocol: Obese (ob/ob) mice have a defect in the protein leptin, a regulator of appetite and fuel metabolism, leading to hyperphagia, obesity and diabetes.
Male obese (ob/ob homozygote) C57BL/6J mice, approximately 8 weeks of age, were obtained from Jackson Labs (Bar Harbor, Me.) and randomly assigned into groups of 5 animals each such that the body weights (45-50 g) and serum glucose levels (≧300 mg/dl in fed state) were similar between groups. A minimum of 7 days was allowed for adaptation after arrival. All animals were maintained under controlled temperature (23° C.), relative humidity (50±5%) and light (7:00-19:00), and allowed free access to standard chow (Formulab Diet 5020 Quality Lab Products, Elkridge, Md.) and water.
Treatment cohorts were given daily oral doses of vehicle (1% hydroxypropyl-methylcellulose), Compounds BI, CF, CA, CB, CC, or CD for 2 weeks. At the end of the treatment period 100 μl of venous blood was withdrawn in a heparinized capillary tube from the retro-orbital sinus of ob/ob mice for serum chemistry analysis.

db/db mice = assay: Antidiabetic effects in db/db mice, Example B (2 weeks daily oral dosing); type: in vivo, mouse
Text: db/db mice have a defect in leptin signaling, leading to hyperphagia, obesity and diabetes. Moreover, unlike ob/ob mice on a C57BL/6J background, db/db mice on a C57BL/KS background undergo failure of their insulin-producing pancreatic islet cells, resulting in progression from hyperinsulinemia (associated with peripheral insulin resistance) to hypoinsulinemic diabetes.
Male obese (db/db homozygote) C57BL/Ksola mice approximately 8 weeks of age, were obtained from Jackson Labs (Bar Harbor, Me.) and randomly assigned into groups of 5-7 animals such that the body weights (50-55 g) and serum glucose levels (≧300 mg/dl in fed state) were similar between groups; male lean (db/+heterozygote) mice served as cohort controls. A minimum of 7 days was allowed for adaptation after arrival. All animals were maintained under controlled temperature (23° C.), relative humidity (50±5%) and light (7:00-19:00), and allowed free access to standard chow (Formulab Diet 5008, Quality Lab Products, Elkridge, Md.) and water.
Treatment cohorts were given daily oral doses of Vehicle (1% hydroxypropylmethylcellulose), Compounds BI, CE, BT, BV, […] or Fenofibrate for 2 weeks. At the end of the treatment period 100 μl of venous blood was withdrawn in a heparinized capillary tube from the retro-orbital sinus of db/db mice for serum chemistry analysis.

[2] = target: T1, Mouse PPARγ LBD fusion protein (Mus musculus, UniProt P37238); assay: Transcription activation potential, GAL4 luciferase reporter in Hepa1.6 cells; type: cell-based
T1 sequence (P37238 238-503): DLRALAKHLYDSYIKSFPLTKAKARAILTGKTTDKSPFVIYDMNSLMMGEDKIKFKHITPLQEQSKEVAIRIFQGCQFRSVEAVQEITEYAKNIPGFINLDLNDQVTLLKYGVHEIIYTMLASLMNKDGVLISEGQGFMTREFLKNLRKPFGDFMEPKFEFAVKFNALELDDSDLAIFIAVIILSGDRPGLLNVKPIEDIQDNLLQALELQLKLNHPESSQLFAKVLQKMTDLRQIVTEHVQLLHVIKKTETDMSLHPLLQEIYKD
Protocol: (§1) Cells were seeded in 24 well plates the day prior to transfection at 5×10^4−2×10^5 cells/well, depending upon cell type. Cells were transfected using Lipofectamine 2000 reagent from Invitrogen. A total of 0.8 μg DNA/well was added to 50 μL of Optimem Reduced Serum media (serum free; Gibco). Lipofectamine 2000 was added (2.5 μL/well) to another tube containing 50 μL of Optimem media. Plasmid DNA was added at a ratio of 4:3 (reporter:activator); where appropriate, salmon sperm DNA was substituted for activator expressing plasmid. […] DNA constructs containing the mouse PPARα or PPARγ LBD fused to the GAL4 DNA binding domain were also used. The two solutions were incubated at room temperature for 5 min, and then combined. The combined solution was incubated at room temperature for approximately 30 min. Cells were washed once with PBS, and 100 μL of transfection mix added to each well. Plates were incubated at 37° C. in a 5% CO2 incubator for 4.5 hr, followed by aspiration of the transfection mix, with plates refed using EMEM complete media (supplemented with 10% FBS, 1× Glutamine). 24 hr post-transfection, plates were treated with the appropriate compounds in EMEM complete media, followed by washing once with PBS and addition of 100 μL 1× reporter lysis buffer/well (Promega) 24 hr after treatment. Plates went through one freeze/thaw cycle prior to analysis. Approximately 10 μL of lysate was added to 100 μL of firefly luciferase substrate, mixed by pipetting, and analyzed on a luminometer for 10 s using the integration function (relative luciferase units/RLU) or on a Microbeta Trilux (luciferase counts per second/LCPS). Each treatment was performed in triplicate, and in multiple, separate experiments.

[3] = system: Human PPARγ LBD fusion protein; assay: Transcription activation potential, GAL4 luciferase reporter in C3A cells; type: cell-based
Protocol: as §1

[4] = target: T1, Mouse PPARγ LBD fusion protein; assay: as above; type: cell-based
Protocol: as §1

[5] = 100 mg/kg, 2 weeks daily oral dosing
[6] = serum, 2 weeks daily oral, dose not given in Table 17 (see Table 16)

transcription activation potential (luciferase) ± standard deviation ([2]; 1 μM): 210 ± 51 RLU | transcription activation potential (luciferase) ± standard deviation ([2]; 3 μM): 256 ± 33 RLU | transcription activation potential (luciferase) ± standard deviation ([2]; 5 μM): 254 ± 81 RLU | transcription activation potential (luciferase) ± standard deviation ([2]; 7 μM): 265 ± 61 RLU | transcription activation potential (luciferase) ± standard deviation ([2]; 10 μM): 355 ± 53 RLU | transcription activation potential (luciferase) ± standard deviation ([2]; 30 μM): 441 ± 203 RLU | transcription activation potential (luciferase) ± standard deviation ([2]; 100 μM): 820 ± 353 RLU | transcription activation potential (luciferase) ± standard deviation ([4]; 1 μM test compound, Table 20b): 2.4 ± 2.26 LCPS | transcription activation potential (luciferase) ± standard deviation ([4]; 1 μM, Table 21b): 746 ± 362 RLU | transcription activation potential (luciferase) ± standard deviation ([4]; 3 μM test compound, Table 20b): 2.6 ± 1.41 LCPS | transcription activation potential (luciferase) ± standard deviation ([4]; 3 μM, Table 21b): 174 ± 153 RLU | transcription activation potential (luciferase) ± standard deviation ([4]; 5 μM, Table 21b): 996 ± 855 RLU | transcription activation potential (luciferase) ± standard deviation ([4]; 7 μM, Table 21b): 220 ± 137 RLU | transcription activation potential (luciferase) ± standard deviation ([4]; 10 μM test compound, Table 20b): 2.2 ± 1.57 LCPS | transcription activation potential (luciferase) ± standard deviation ([4]; 10 μM, Table 21b): 479 ± 353 RLU | transcription activation potential (luciferase) ± standard deviation ([4]; 30 μM test compound, Table 20b): 4.9 ± 4.42 LCPS | transcription activation potential (luciferase) ± standard deviation ([4]; 30 μM, Table 21b): 557 ± 639 RLU | transcription activation potential (luciferase) ± standard deviation ([4]; 100 μM test compound, Table 20b): 2.63 ± 1.96 LCPS | transcription activation potential (luciferase) ± standard deviation ([4]; 100 μM, Table 21b): 3330 ± 1848 RLU | transcription activation potential (luciferase) ± standard deviation ([4]; 200 μM test compound, Table 20b): 65.77 ± 10.55 LCPS
SMILES: Cc1cccc(C)c1COc1cccc(C(=O)CCC(=O)O)c1 [Compound BI, 4-(3-(2,6-Dimethylbenzyloxy)phenyl)-4-oxobutyric acid]
Free Fatty Acids ± SEM ([1]; 30 mg/kg): 1272.8 ± 32.5 | Triglycerides ± SEM ([1]; 30 mg/kg): 66.6 ± 3.6 | Glucose ([1]; 30 mg/kg daily oral): 301.4 ± 29.0 mg/dL | Glucose (% of Control) ([1]; 30 mg/kg daily oral): 71.0 ± 7.0 % of Control | Glucose ± SEM ([1]; 30 mg/kg): 301.4 ± 29.0 | Glucose ([1]; 60 mg/kg daily oral): 248.8 ± 20.0 mg/dL | Glucose (% of Control) ([1]; 60 mg/kg daily oral): 59.0 ± 5.0 % of Control | Free Fatty Acids ± SEM ([1]; 100 mg/kg): 1245.4 ± 20.0 | Triglycerides ± SEM ([1]; 100 mg/kg): 55.0 ± 3.4 | Glucose ([1]; 100 mg/kg daily oral): 196.3 ± 6.0 mg/dL | Glucose (% of Control) ([1]; 100 mg/kg daily oral): 46.0 ± 1.0 % of Control | reduction in blood glucose (in words) [1, 5]: significant reduction | reduction in free fatty acids (in words) [1, 5]: significant reduction | reduction in triglycerides (in words) [1, 5]: significant reduction | Glucose ± SEM ([1]; 100 mg/kg): 196.3 ± 6.0 | Glucose (% of Control) (db/db mice; 100 mg/kg daily oral, 2 weeks): 50 ± 6 % of Control | Glucose (db/db mice; nonfasting, 100 mg/kg daily oral, 2 weeks): 347.0 ± 43.1 mg/dL | Free Fatty Acids ± SEM (db/db mice; [6]): 1997.2 ± 196.4 µM | Triglycerides ± SEM (db/db mice; [6]): 77.8 ± 5.3 mg/dL | transcription activation potential (luciferase) ± standard deviation ([3]; 1 μM test compound): 43.3 ± 11.6 LCPS | transcription activation potential (luciferase) ± standard deviation ([3]; 3 μM test compound): 26 ± 4.5 LCPS | transcription activation potential (luciferase) ± standard deviation ([3]; 10 μM test compound): 40.1 ± 13.5 LCPS | transcription activation potential (luciferase) ± standard deviation ([3]; 30 μM test compound): 22.9 ± 10.3 LCPS | transcription activation potential (luciferase) ± standard deviation ([3]; 100 μM test compound): 34.6 ± 15.6 LCPS | transcription activation potential (luciferase) ± standard deviation ([3]; 200 μM test compound): 227.3 ± 25.8 LCPS
